Among the data in US11718614B2, “Compounds and methods for treatment of hedgehog pathway associated conditions” (Suzhou Mednes Pharma Tech Co., Ltd., priority 2018, dated 2023) are IC50 values, retold here.

This test relates to tumor cells from medulloblastoma developed from mice with deficiency in Patched1 gene. Put plainly: MB assay: survival of medulloblastoma tumor cells by MTT after 48 hours. In kind it is cell-based. The note with it: Mus musculus, tumor cells treated 48 hours, cell survival by MTT. The method, then: To test the effect of the novel compounds on the proliferation of tumor cell, we isolated tumor cells from medulloblastoma developed from mice with deficiency in Patched1 gene. Tumor cells were plated in vitro as previously described, and treated with various concentration of compounds for 48 hours. Tumor cells cultured were then harvested to measure cell survival based on MTT assay. The IC50 value for each compound was calculated using Prism the statistical software.
Table 1 below summarizes the IC50 data obtained using MB assay for exemplary compounds of the invention. IC50 values are shown as A, B, C, or D. A represents IC50 value between 1.0 μM and 5.0 μM; B is between 5.0 μM and 10 μM; C is between 10 μM to 20 μM; and D indicates greater than 20 μM.
In general, IC50 refers to the midpoint of a concentration-inhibition curve. On to `COc1ccc2c(c1)cc(C(C)c1ccc(CC(C)C)cc1)n2Cc1cccc(Cl)c1` (centres unmarked) [Compound 48], for which the IC50 is > 20 µM.

Take `CCc1noc(C(C)(C)Cc2c(SC(C)(C)C)c3cc(OC)ccc3n2Cc2ccc(Cl)cc2)n1` [Compound 33]: the IC50 was > 20 µM.

Regarding `Cn1nnnc1C(C)(C)Cc1c(SC(C)(C)C)c2cc(O)ccc2n1Cc1ccc(Cl)cc1` [Compound 37, 3-(tert-butylthio)-1-(4-chlorobenzyl)-2-(2-methyl-2-(1-methyl-1H-tetrazol-5-yl)propyl)-1H-indol-5-ol], the IC50 is 10 to 20 µM.

In the case of `COc1ccc2c(c1)c(-c1ccc(CC(C)C)cc1)c(C)n2Cc1ccccc1Cl` [Compound 54], the IC50 was > 20 µM.

For the compound `COc1ccc2c(c1)c(-c1ccc(CC(C)C)cc1)cn2Cc1ccccc1Cl` [Compound 56, 1-(2-chlorobenzyl)-3-(4-isobutylphenyl)-5-methoxy-1H-indole], the IC50 is > 20 µM.
